Assay results from patent US5328909A, “Cyclopropenone derivatives” (Mitsubishi Kasei Corporation, priority 1991, dated 1994).

Target: T1, m-calpain (Rattus norvegicus, UniProt Q07009)
T1 construct: m-calpain was purified from rat brain; from tissue; host or cells: rat brain
T1 sequence (Q07009 20-700 limits assumed): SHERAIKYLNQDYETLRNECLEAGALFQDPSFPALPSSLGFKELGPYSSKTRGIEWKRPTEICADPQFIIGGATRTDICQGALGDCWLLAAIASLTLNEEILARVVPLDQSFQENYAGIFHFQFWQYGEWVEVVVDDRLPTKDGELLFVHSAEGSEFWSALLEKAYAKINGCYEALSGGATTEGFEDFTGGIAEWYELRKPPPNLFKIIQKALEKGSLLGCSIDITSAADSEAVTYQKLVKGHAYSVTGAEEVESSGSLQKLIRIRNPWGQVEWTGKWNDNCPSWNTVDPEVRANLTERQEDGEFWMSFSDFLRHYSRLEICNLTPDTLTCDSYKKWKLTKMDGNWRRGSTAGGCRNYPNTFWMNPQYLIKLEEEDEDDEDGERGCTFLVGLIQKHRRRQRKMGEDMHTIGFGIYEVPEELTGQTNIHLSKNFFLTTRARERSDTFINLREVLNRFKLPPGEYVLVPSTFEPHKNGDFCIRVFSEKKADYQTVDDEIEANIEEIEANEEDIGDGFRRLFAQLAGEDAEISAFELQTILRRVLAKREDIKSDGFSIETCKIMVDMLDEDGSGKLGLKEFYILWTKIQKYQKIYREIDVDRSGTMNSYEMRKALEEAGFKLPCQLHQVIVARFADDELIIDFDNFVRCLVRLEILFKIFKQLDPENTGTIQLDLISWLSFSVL
T1 sequence (Q64537 1-270 partner): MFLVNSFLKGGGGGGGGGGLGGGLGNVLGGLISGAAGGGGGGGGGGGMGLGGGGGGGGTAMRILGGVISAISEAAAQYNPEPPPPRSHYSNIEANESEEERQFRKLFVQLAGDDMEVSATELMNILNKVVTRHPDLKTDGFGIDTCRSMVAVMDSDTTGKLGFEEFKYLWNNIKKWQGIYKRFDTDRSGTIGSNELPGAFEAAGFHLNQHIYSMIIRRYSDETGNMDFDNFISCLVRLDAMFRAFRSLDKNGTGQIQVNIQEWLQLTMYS
Experiment: Thiol protease inhibitory activity against m-calpain purified from rat brain
Assay type: biochemical
Settings: Table 4; rat brain enzyme; read-out: Inhibitory activity against m-calpain IC50
Protocol: Inhibitory activity against papain (P-3125, Sigma) and cathepsin B (C-6286, Sigma) was assayed according to the method described in a literature [Biochemical Journal, 201, 189 (1982)]. Capthesin L was purified from rat kidney according to the method in a literature [Journal of Biochemistry, 100, 35 (1986)], and the inhibitory activity against it was assayed in the same manner as described in the above literature for cathepsin B. Further, m-calpain was purified from rat brain according to a known method [Journal of Biological Chemistry, 254, p.3210 (1984)] and the inhibitory activity against it was assayed by a method described in a literature [Journal of Biological Chemistry, 259, 12489 (1984)]. The results are showing in Tables 3 and 4. It is evident from Tables 3 and 4 that the compounds in the present invention have a potent inhibitory activity against thiol proteases such as papain, cathepsin B, cathepsin L, m-calpain or the like.

SMILES | IC50
CC(C)C[C@H](NC(=O)CCc1ccccc1)C(=O)N[C@@H](C(C)C)[C@@H](O)c1c(-c2ccccc2)c1=O [42 (No. 133), 2-[(1S, 2S)-1-hydroxy-3-methyl-2-{(S)-4-methyl-2-(3-phenylpropionylamino)valerylamino}butyl]-3-phenylcyclopropenone] | 1.5 µM
CC(C)C[C@H](NC(=O)CCCc1ccccc1)C(=O)N[C@@H](C(C)C)[C@@H](O)c1c(-c2ccccc2)c1=O [43 (No. 134), 2-[(1S, 2S)-1-hydroxy-3-methyl-2-{(S)-4-methyl-2-(4-phenylbutyrylamino)valerylamino}butyl]-3-phenylcyclopropenone] | 1.7 µM
CC(=O)CCC(=O)N[C@@H](CC(C)C)C(=O)N[C@@H](C(C)C)[C@@H](O)c1c(-c2ccccc2)c1=O [44 (No. 137), 2-[(1S, 2S)-1-hydroxy-3-methyl-2-(S)-4-methyl-2-(4-oxovalerylamino)valerylamino]-3-phenylcyclopropenone] | 3 µM
CC(C)C[C@H](NC(=O)CCC(=O)c1ccccc1)C(=O)N[C@@H](C(C)C)[C@@H](O)c1c(-c2ccccc2)c1=O [45 (No. 140), 2-[(1S, 2S)-2-{(S)-2-(3-benzoylpropionylamino)-4-methylvalerylamino}-1-hydroxy-3-methylbutyl]-3-phenylcyclopropenone] | 1 µM
CC(C)C[C@H](NC(=O)COc1ccccc1)C(=O)N[C@@H](C(C)C)[C@@H](O)c1c(-c2ccccc2)c1=O [48 (No. 148), 2-[(1S, 2S)-1-hydroxy-3-methyl-2-((S)-4-methyl-2-phenoxyacetylaminovalerylamino)butyl]-3-phenylcyclopropenone] | 0.63 µM
CC(C)C[C@H](NC(=O)COc1ccccc1Cl)C(=O)N[C@@H](C(C)C)[C@@H](O)c1c(-c2ccccc2)c1=O [50 (No. 152), 2-[(1S, 2S)-2-{(S)-2-(2-chlorophenoxyacetylamino)-4-methylvalerylamino}-1-hydroxy-3-methylbutyl]-3-phenylcyclopropenone] | 1.2 µM
CC(C)C[C@H](NC(=O)COc1ccc(Cl)cc1)C(=O)N[C@@H](C(C)C)[C@@H](O)c1c(-c2ccccc2)c1=O [51 (No. 154), 2-[(1S, 2S)-2-{(S)-2-(4-chlorophenoxyacetylamino)-4-methylvalerylamino}-1-hydroxy-3-methylbutyl]-3-phenylcyclopropenone] | 0.75 µM
CC(C)C[C@H](NC(=O)COc1cccc(Cl)c1Cl)C(=O)N[C@@H](C(C)C)[C@@H](O)c1c(-c2ccccc2)c1=O [52 (No. 155), 2-[(1S, 2S)-2-{(S)-2-(2,3-dichlorophenoxyacetylamino)-4-methylvalerylamino}-1-hydroxy-3-methylbutyl]-3-phenylcyclopropenone] | 0.74 µM
COc1ccccc1OCC(=O)N[C@@H](CC(C)C)C(=O)N[C@@H](C(C)C)[C@@H](O)c1c(-c2ccccc2)c1=O [53 (No. 161)] | 2.3 µM
CC(C)C[C@H](NC(=O)COCc1ccccc1)C(=O)N[C@@H](C(C)C)[C@@H](O)c1c(-c2ccccc2)c1=O [54 (No. 166), 2-[(1S, 2S)-2-((S)-2-benzyloxyacetylamino-4-methylvalerylamino)-1-hydroxy-3-methylbutyl]-3-phenylcyclopropenone] | 1.1 µM
CC(C)C[C@H](NC(=O)CCOc1ccccc1)C(=O)N[C@@H](C(C)C)[C@@H](O)c1c(-c2ccccc2)c1=O [55 (No. 167), 2-[(1S, 2S)-1-hydroxy-3-methyl-2-{(S)-4-methyl-2-(3-phenoxypropionylamino)valerylamino}butyl]-3-phenylcyclopropenone] | 0.8 µM
CC(C)C[C@H](NC(=O)CSc1ccccc1)C(=O)N[C@@H](C(C)C)[C@@H](O)c1c(-c2ccccc2)c1=O [56 (No. 168), 2-[(1S, 2S)-1-hydroxy-3-methyl-2-((S)-4-methyl-2-phenylthioacetylaminovalerylamino}butyl]-3-phenylcyclopropenone] | 2.2 µM
CC(C)C[C@H](NC(=O)CCS(=O)(=O)c1ccccc1)C(=O)N[C@@H](C(C)C)[C@@H](O)c1c(-c2ccccc2)c1=O [57 (No. 170)] | 3.1 µM
CC(C)C[C@H](NC(=O)c1c(F)cccc1F)C(=O)N[C@@H](C(C)C)[C@@H](O)c1c(-c2ccccc2)c1=O [59 (No. 175), 2-[(1S, 2S)-2-{(S)-2-(2,6-difluorobenzoylamino)-4-methylvalerylamino}-1-hydroxy-3-methylbutyl]-3-phenylcyclopropenone] | 1.6 µM
CC(C)C[C@H](NC(=O)c1ccccc1Cl)C(=O)N[C@@H](C(C)C)[C@@H](O)c1c(-c2ccccc2)c1=O [60 (No. 178), 2-[(1S, 2S)-2-{(S)-2-(2-chlorobenzoylamino)-4-methylvalerylamino}-hydroxy-3-methylbutyl]-3-phenylcyclopropenone] | 1.1 µM
CC(C)C[C@H](NC(=O)c1ccc(Cl)cc1)C(=O)N[C@@H](C(C)C)[C@@H](O)c1c(-c2ccccc2)c1=O [62 (No. 180), 2-[(1S, 2S)-2-{(S)-2-(4-chlorobenzoylamino)-4-methylvalerylamino}-1-hydroxy-3-methylbutyl]-3-phenylcyclopropenone] | 1.4 µM
Cc1ccccc1C(=O)N[C@@H](CC(C)C)C(=O)N[C@@H](C(C)C)[C@@H](O)c1c(-c2ccccc2)c1=O [63 (No. 184), 2-[(1S, 2S)-1-hydroxy-3-methyl-2-{(S)-4-methyl-2-(2-toluoylamino)valerylamino}butyl]-3-phenylcyclopropenone] | 1.6 µM
COC(=O)c1ccc(C(=O)N[C@@H](CC(C)C)C(=O)N[C@@H](C(C)C)[C@@H](O)c2c(-c3ccccc3)c2=O)cc1 [65 (No. 191), 2-[(1S, 2S)-1-hydroxy-2-{(S)-2-(4-methoxycarbonylbenzoylamino)-4-methylvalerylamino}-3-methylbutyl]-3-phenylcyclopropenone] | 1.8 µM
CC(C)C[C@H](NC(=O)c1ccco1)C(=O)N[C@@H](C(C)C)[C@@H](O)c1c(-c2ccccc2)c1=O [67 (No. 197), 2-[(1S, 2S)-2-{(S)-2-(2-furoylamino)-4-methylvalerylamino}-1-hydroxy-3-methylbutyl]-3-phenylcyclopropenone] | 0.88 µM
CC(C)C[C@H](NC(=O)c1cccs1)C(=O)N[C@@H](C(C)C)[C@@H](O)c1c(-c2ccccc2)c1=O [68 (No. 200), 2-[(1S, 2S)-1-hydroxy-3-methyl-2-{(S)-4-methyl-2-(2-thenoylamino)valerylamino}butyl]-3-phenylcyclopropenone] | 3.1 µM
Cc1cc(C(=O)N[C@@H](CC(C)C)C(=O)N[C@@H](C(C)C)[C@@H](O)c2c(-c3ccccc3)c2=O)n(C)n1 [69 (No. 203), 2-[(1S, 2S)-2-{(S)-2-(1,3-dimethyl-5-pyrazolylcarbonylamino)-4-methylvalerylamino}-1-hydroxy-3-methylbutyl]-3-phenylcyclopropenone] | 3 µM
CC(C)C[C@H](NC(=O)c1cccnc1)C(=O)N[C@@H](C(C)C)[C@@H](O)c1c(-c2ccccc2)c1=O [71 (No. 209), 2-[(1S, 2S)-1-hydroxy-3-methyl-2-((S)-4-methyl-2-nicotinoylaminovalerylamino)butyl]-3-phenylcyclopropenone] | 1.3 µM
CC(C)C[C@H](NC(=O)c1ccncc1)C(=O)N[C@@H](C(C)C)[C@@H](O)c1c(-c2ccccc2)c1=O [72 (No. 213), 2-[(1S, 2S)-1-hydroxy-2-((S)-2-isonicotinoylamino-4-methylvalerylamino)-3-methylbutyl]-3-phenylcyclopropenone] | 0.4 µM
